# Measurements from PubChem BioAssay (NCI).
# Values joined by “and” are separate entries in the source; they are usually repeats but may differ in a detail not shown here. Equal values may be shown once.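 In this assay, cells in 96-well plates receive the compound at five concentrations for 48 hours. Endpoints are linearly interpolated between the surrounding concentrations. GI50 is the concentration that inhibits growth by half. The concentration for full growth arrest is given as TGI.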
# Legend:
# Assay in all cases: growth of human tumour cells (NCI), 48 h
# [1] = test system: UACC-62 melanoma
# [2] = test system: SR leukemia
# [3] = test system: RPMI-8226 leukemia
# [4] = test system: SF-295 CNS
# [5] = test system: CCRF-CEM leukemia
# [6] = test system: SNB-19 CNS
# [7] = test system: NCI-H522 lung
# [8] = test system: A498 renal
# [9] = test system: SF-268 CNS
# [10] = test system: IGROV1 ovarian
SMILES,GI50 [1] [µM],TGI [1] [µM],GI50 [2] [µM],TGI [2],GI50 [3] [µM],TGI [3] [µM],GI50 [4] [µM],TGI [4] [µM],GI50 [5] [µM],TGI [5] [µM],GI50 [6] [µM],TGI [6] [µM],GI50 [7] [µM],TGI [7] [µM],GI50 [8] [µM],TGI [8] [µM],GI50 [9] [µM],TGI [9] [µM],GI50 [10] [µM],TGI [10] [µM]
CC(C)C[C@H](NC(=O)[C@H](Cc1ccccc1)n1ccc(N2CCCCC2)cc1=O)B(O)O,0.458,2.44,0.259,11.6 µM,0.321,> 100,0.585,4.51,0.429,> 100,0.956,> 100,0.305,2.25,0.127,0.736,0.699,3.85,5.1,> 100
O=C1/C(=C/c2cccc([N+](=O)[O-])c2)COc2ccc(O)c(O)c21,1.57,2.98,0.364,7.94 µM,0.301,0.93,3.27,11.2,0.335,2.43,1.55,2.98,0.281,1.36,1.42,3.26,1.79,4.3,1.02,2.97
O=C(Nc1ccc(Cl)c([N+](=O)[O-])c1)Nc1nc2ccccc2s1,4.05,18,3.94,16.4 µM,2.93,10.5,2.01,5.41,3.88,20.8,4.87,30.8,2.44,7.33,2.14,8.01,4.49,16.6,3.62,17.4
COc1cccc(N2C(=O)c3c(c4[nH]c5ccccc5c4c4ccc(C(C)(C)C)cc34)C2=O)c1,,> 100,,> 100 µM,,,,> 100,,> 100,,> 100,,> 100,,> 100,,> 100,,> 100
C/C(=N\N=C(N)N)C(CN(CC(C)C)CC(C)C)C(=O)Nc1ccc(C)cc1C (configuration not stated),,> 100,,> 100 µM,,,,> 100,,> 100,,> 100,,> 100,,> 100,,> 100,,> 100
COC(=O)C1(C)C=C(Nc2ccccc2)C(=O)N1c1ccccc1 (configuration not stated),,> 100,,,,> 100,,> 100,,> 100,,> 100,,> 100,,,,> 100,,> 100
O=C(O)c1ccc(NC(=O)C2C(=O)C(=O)N(c3ccc(C(=O)O)cc3)C2=O)cc1 (configuration not stated),,> 100,,,,> 100,,> 100,,> 100,,> 100,,> 100,,> 100,,> 100,,> 100
Cn1ccnc1C(=O)/C=C/c1ccc(CC(=O)Nc2ccc(Cl)cc2)cc1,6.5,> 25,,,0.959,> 25,7.39,> 25,1.46,> 25,1.77,> 25,4.85,> 25,> 25,> 25,1.24,> 25,5.27,> 25
O=C(/C=C/c1ccco1)c1ccc(Nc2nc(Nc3ccc(F)cc3)nc(Nc3ccc(Cl)cc3)n2)cc1,> 37.4,> 59.5,> 20.7,> 44.5 µM,2.75,> 82.4,,,> 37.8,> 94.4,34.8,> 70,31.1,> 100,2.39,> 65.1,34.8,> 86.4,25.8,> 81
c1ccc(N=C2c3ccccc3CN2c2ccccc2)cc1,,> 100,,> 100 µM,,> 100,,> 100,,> 100,,> 100,,> 100,,,,> 100,,> 100
COc1nc2c(OC)cccc2c(OC)c1C=O,,> 100,,,,> 100,,> 100,,> 100,,> 100,,> 100,,,,,,> 100
O=C(Nc1ccc(S(=O)(=O)Nc2nccs2)cc1)c1cccnc1Nc1cccc(Cl)c1,6.62,20.3,,,19.8,89.2,16.5,43.5,23.4,> 100,14.7,34.4,11,28.4,10.1,23.7,12.8,31.5,15.4,53
C=CC1(C)CCC(C(C)C(=O)C(C=C(C)C)OC(C)=O)C12C(=O)Oc1ccccc1C2=O (configuration not stated),,> 100,,> 100 µM,,68.2,,> 100,,> 100,,> 100,,> 100,,,,> 100,,> 100
CC(C(=O)N1C(=O)N(C(=O)C(C)C(O)c2ccccc2)C(c2ccccc2)C1c1ccccc1)C(O)c1ccccc1 (configuration not stated),,40.5,,14.5 µM,,13.6,,10.8,,32.2,,> 100,,48.4,,,,> 100,,> 100
CN(N=O)C(=O)Nc1c[nH]c(=O)[nH]c1=O,,> 100,,,,,,> 100,,> 100,,> 100,,> 100,,> 100,,,,> 100
CC(Cn1c2c3ccccc3ccc2c2oc(=O)c3ccccc3c21)N(C)C (configuration not stated),,> 100,,> 100 µM,,> 100,,> 100,,> 100,,> 100,,> 100,,,,> 100,,> 100
COc1ccc(OCC(=O)O)c2c1CCC(C(C)C)C2=O (configuration not stated),,> 100,,,,> 100,,> 100,,> 100,,> 100,,> 100,,> 100,,,,> 100
CC(C)C(C(=O)O)N(CC1(O)OCC(O)C(O)C1O)N=O (configuration not stated),,> 100,,,,> 100,,,,> 100,,,,> 100,,> 100,,,,> 100
CCCCCCCCCCCCCS(=O)(=O)O,,> 100,,,,,,> 100,,> 100,,> 100,,> 100,,> 100,,> 100,,> 100
C=C1C(=O)O[C@@H]2C[C@@H]1CC[C@]1(C)O[C@H]1CC[C@@]1(C)O[C@@H]1CC[C@@]2(C)O,42,> 100,3.49,31.1 µM,12.4,42.7,26.7,75.7,17.5,49.4,68.6,> 100,19.1,46.2,,,> 100,> 100,24.3,> 100
CCOC(=N)CC(=O)Nc1ccc(Cl)cc1,,> 100,,> 100 µM,,,,> 100,,> 100,,> 100,,> 100,,> 100,,> 100,,> 100

SMILES,GI50 [1] [µM],TGI [1] [µM],GI50 [2] [µM],TGI [2],GI50 [3] [µM],TGI [3] [µM],GI50 [4] [µM],TGI [4] [µM],GI50 [5] [µM],TGI [5] [µM],GI50 [6] [µM],TGI [6] [µM],GI50 [7] [µM],TGI [7] [µM],GI50 [8] [µM],TGI [8] [µM],GI50 [9] [µM],TGI [9] [µM],GI50 [10] [µM],TGI [10] [µM]
C/C(=N\NC(=S)N1CCCCCC1)c1nccnc1C,,1.3,,,,> 100,,16.6,,,,,,,,12.9,,> 100,,
O=P(c1ccccc1)(c1ccccc1)C1CC=C(c2ccccc2)C2(CCCC2)C1 (configuration not stated),,> 100,,,,52.1,,> 100,,> 100,,> 100,,,,> 100,,> 100,,> 100
COc1ccc2[nH]cc(CCNC(C)=O)c2c1,,> 100,,,,57.1,,> 100,,> 100,,> 100,,> 100,,> 100,,> 100,,> 100
CCCN1C(=O)C/C(=C\C(C)=O)Nc2ccccc21,,> 100,,> 100 µM,,,,> 100,,> 100,,> 100,,> 100,,,,> 100,,> 100
CN(C)/[N+]([O-])=N/Oc1cc(Nc2cccc(C(=O)O)c2)c([N+](=O)[O-])cc1[N+](=O)[O-],50.1,> 100,43.9,> 100 µM,> 100,> 100,> 100,> 100,,,53.6,> 100,69.3,> 100,,,30,78.5,41.1,> 100
O=C(Cc1nc2ccccc2s1)C(=O)Nc1ccc(Cl)cc1,,> 100,,,,> 100,,> 100,,,,> 100,,> 100,,> 100,,> 100,,> 100
COC(=O)c1c[nH]cc1CCc1c[nH]cc1C(=O)OC,,,,> 100 µM,,,,> 100,,> 100,,> 100,,> 100,,> 100,,> 100,,> 100
CSC(=S)c1ccc(C(=S)SC)cc1,,> 100,,> 100 µM,,> 100,,> 100,,,,> 100,,> 100,,> 100,,> 100,,> 100
COc1cc(Nc2cnc3cc(C(F)(F)F)ccc3n2)cc(OC)c1OC,,> 100,,> 100 µM,,> 100,,> 100,,> 100,,> 100,,,,,,> 100,,
Cc1ccc(C)c(NC(=O)C(=O)C2C(=O)C3=C(CC2(C)C)Nc2ccccc2S3)c1 (configuration not stated),,> 100,,,,,,> 100,,> 100,,> 100,,> 100,,,,> 100,,> 100
COc1ccc(CN2C(=O)/C(=C\c3cc(OC)c(OC)c(OC)c3)c3cc(OC)ccc32)cc1,1.71,4.19,,,1.89,5.63,3.26,> 31.4,3.4,> 100,3,10.7,1.32,2.8,1.5,4.39,2.68,7.05,1.8,4.06
O=C(CCN1CCN(c2cccc(Cl)c2)CC1)N1CCc2c([nH]c3ccccc23)C1c1cccnc1 (configuration not stated),,,5.06,7.83 µM and 27 µM,,,,,6.62,> 100,,26.9,4.85,19.1,5.56,20.2,,,18.7,> 100
C/C(CN1C(=O)c2ccccc2C1=O)=N\NS(=O)(=O)c1cccc([N+](=O)[O-])c1,,> 100,,,,> 100,,> 100,,> 100,,> 100,,> 100,,> 100,,> 100,,> 100
CC(=O)N1CCC2(C=Nc3ccccc32)CC1,,> 100,,,,> 100,,> 100,,> 100,,,,,,> 100,,,,> 100
NC(=S)/N=C/c1c(O)c2ccccc2oc1=O,,> 100,,,,> 100,,> 100,,> 100,,> 100,,> 100,,> 100,,> 100,,> 100
Oc1cccc2c1NC1=C(CCC/C1=C\c1ccccc1)C2,,,,> 100 µM,,> 100,,> 100,,> 100,,> 100,,83.5,,,,> 100,,> 100
CC(=O)Nc1ccc(/C=C(\NC(=O)c2ccccc2)c2nc3ccc4c(c3[nH]2)C(=O)c2ccccc2C4=O)cc1,,> 100,,,,> 100,,> 100,,> 100,,> 100,,> 100,,> 100,,> 100,,> 100
CCNc1nnc(CSc2nc(-c3ccccc3)c(-c3ccccc3)[nH]2)s1,,,,> 100 µM,,54.9,,34.1,,40.3,,34,,39.7,,,,39.3,,
Cn1ncc(=S)[nH]c1=S,,> 100,,,,> 100,,> 100,,> 100,,> 100,,> 100,,> 100,,> 100,,> 100
CN(C)c1ccc(-c2cc(=O)c3ccccc3[nH]2)cc1,,,,> 100 µM,,> 100,,> 100,,> 100,,> 100,,> 100,,,,> 100,,> 100
